Q: For `O=C(O)c1cc(-c2ccc(Cl)cc2)n(Cc2ccc(Cl)cc2Cl)n1`, which melting point is on record?
A: 185 °C

Q: For `CC1(C)CCC(C)(C)c2cc(C(F)C(=O)O)ccc21` (centres undefined), which melting point is on record?
A: 127 to 128 °C

Q: With `NS(=O)(=O)c1ccc(NC(=O)CNC2CCCCC2)c(Cl)c1` as the compound, how does the melting point read?
A: 213 to 215 °C

Q: For `CCc1ccc2c(=O)c(CO)cn(C)c2c1`, which melting point is on record?
A: 147 to 148 °C

Q: With `COc1cc(CO)ccc1OCc1sc(-c2ccccc2)nc1C` as the compound, how does the melting point read?
A: 152 to 153 °C

Q: Which melting point does the source give for `CCOC(=O)c1cn(CCN(CC)CC)c2oc(CN3CCOCC3)cc2c1=O` here?
A: 131 to 134 °C

Q: For `CS(=O)c1ccc(-c2cc(C(F)F)nn2-c2ccc3c(c2)OCO3)cc1` (centres undefined), which melting point is on record?
A: 104 to 105 °C

Q: Which melting point does the source give for `CC(=O)NCCCC(=O)c1ccc(Cl)cc1CCC(=O)O` here?
A: 90 to 92 °C

Q: Which melting point does the source give for `Cc1ccc(C)c(OCCC(O)C(C)(C)C(=O)O)c1` (centres undefined) here?
A: 100 °C

Q: For `CCOC(=O)OC1CCN(C(=O)Cn2c(=O)sc3ccc(Cl)cc32)CC1`, which melting point is on record?
A: 196 to 197 °C

Q: With `COc1cc2c(cc1S(N)(=O)=O)CCN(C(C)=O)CC2` as the compound, how does the melting point read?
A: 260 to 263 °C

Q: Which melting point does the source give for `CC1Cc2c(cc(C(C)(C)C)c(O)c2C(C)(C)C)O1` (centres undefined) here?
A: 86.8 °C

Q: For `CC(C)(C)c1ccc(OCC(O)CN2CCC3(CC2)CSC2=C(O3)c3ccccc3C(=O)C2=O)cc1` (centres undefined), which melting point is on record?
A: 150 to 152 °C

Q: Which melting point does the source give for `COc1ccccc1N1CCN(CCCCCC(=O)N2Cc3ccccc3C2)CC1` here?
A: 100 °C

Q: For `Cc1nc(-c2ccc(C(=O)Nc3ccc(Cl)cc3)cc2)sc1C(=O)O`, which melting point is on record?
A: 276 to 278 °C

Q: With `O=c1c(CCCc2ccncc2)cc2cccnc2n1-c1cccnc1` as the compound, how does the melting point read?
A: 178 to 180 °C

Q: With `OC1Cc2ccccc2Sc2cc(Cl)c(Cl)cc21` (centres undefined) as the compound, how does the melting point read?
A: 124 to 126 °C

Q: For `CC(C)(C)S(=O)(=O)CS(=O)(=O)C(C)(C)C`, which melting point is on record?
A: 152 to 155 °C

Q: Which melting point does the source give for `CN1CCc2[nH]c(=O)n3nc(-c4ccccc4F)nc3c2C1` here?
A: 285 to 287 °C

Q: Which melting point does the source give for `CNC(=O)n1ccc(O)cc1=O` here?
A: 268 °C

Q: For `Cn1nc(C(F)(F)F)c(CS(=O)(=O)C2=NOC(C)(C)C2)c1Oc1ccccc1Cl`, which melting point is on record?
A: 67 to 70 °C

Q: Which melting point does the source give for `O=C(N[C@H]1CC[C@@H](C(=O)Oc2ccc3c(c2)CCC3)CC1)OCc1ccccc1` here?
A: 68 to 69 °C

Q: For `O=C(O)c1cc2c(Cl)ccc(Br)c2s1`, which melting point is on record?
A: > 300 °C

Q: With `CC(C)(C)OC(=O)[C@@H]1CCC(=O)N1Cc1ccccc1` as the compound, how does the melting point read?
A: 59 to 63 °C

Q: Which melting point does the source give for `O=C1CCC(N2Cc3c(OCc4cn5ccccc5n4)cccc3C2=O)C(=O)N1` (centres undefined) here?
A: 222 to 224 °C

Q: Which melting point does the source give for `CC(C)C[C@H](NC(=O)[C@H](Cc1c[nH]cn1)NC(=O)C(CC(=O)NCCc1ccccc1)Cc1cccc2ccccc12)[C@@H](O)CCO` (some centres undefined) here?
A: 87 to 92 °C

Q: For `CCOC(=O)C1=C(C)Nc2nc(N3CCCCC3)nc(N3CCCCC3)c2C1c1cccc([N+](=O)[O-])c1` (centres undefined), which melting point is on record?
A: 169 °C

Q: For `CC(C)c1cc2c(cc1C(SCC(=O)O)c1ccccc1)OCO2` (centres undefined), which melting point is on record?
A: 114 °C

Q: Which melting point does the source give for `COc1cc(NCCCCCCN2CCN(C(=O)OCc3ccccc3)CC2)c2nccc(C)c2c1` here?
A: 73 to 73.5 °C

Q: With `COc1c(N2CCC(N)C(C)C2)c(F)cc2c(=O)c(C(=O)O)cn(C3CC3)c12` (centres undefined) as the compound, how does the melting point read?
A: 240 to 242 °C

Q: For `CC(=O)Nc1c(C(=O)c2cccc(C(=O)O)c2)[nH]c2cc(Cl)ccc12`, which melting point is on record?
A: > 290 °C

Q: Which melting point does the source give for `CCOC(=O)COc1ccc([N+](=O)[O-])cc1Cl` here?
A: 73 to 74 °C

Q: Which melting point does the source give for `C[C@H]1C(=O)C[C@@H]2C[C@H]1OO[C@]2(C)/C=C\c1ccc(C(F)(F)F)cc1C(F)(F)F` here?
A: 124 °C

Q: With `COC(=O)C1=CN(CCCc2ccccc2)C=C(C(=O)OC)C1c1ccc(OC)c(OC)c1` as the compound, how does the melting point read?
A: 107 to 113 °C

Q: Which melting point does the source give for `CC1=CC(OC(=O)c2ccc(O)cc2)C(O)C(C)(C)CC1=O` (centres undefined) here?
A: 123 to 125 °C

Q: Which melting point does the source give for `CS(=O)(=O)N1CCN(S(=O)(=O)c2ccc3c(c2)S(=O)(=O)NC(C2CCCCC2)N3)CC1` (centres undefined) here?
A: 272 to 274 °C

Q: For `CCCC(NS(C)(=O)=O)P(=O)(OCCCl)OCCCl` (centres undefined), which melting point is on record?
A: 69 to 72 °C

Q: For `CCOC(=O)c1cccc2[nH]c3c(C)ccc(C)c3c12`, which melting point is on record?
A: 149 °C

Q: For `Cc1[nH]n(Cc2ccc(C(=O)O)cc2)c2nc(-c3ccncc3)nc(=O)c1-2`, which melting point is on record?
A: > 300 °C

— a melting point compilation (Tetko et al.; mined from patent text by program, amines drawn as free bases though some values may be those of a salt)
